The source made the active and inactive calls.
Key:
Format in all cases: functional
[1] = target: Megakaryocyte-associated tyrosine-protein kinase (Homo sapiens, UniProt P42679);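 also: affinity measured as one member of a kinase panel (Navigating the Kinome) against MATK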
[2] = target: Dual specificity protein kinase CLK2 (Homo sapiens, UniProt P49760)
[3] = target: 5'-AMP-activated protein kinase catalytic subunit alpha-1 (Homo sapiens, UniProt Q13131)
[4] = target: Serine/threonine-protein kinase PLK4 (Homo sapiens, UniProt O00444);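 also: PLK4 measured as one member of a kinome-wide kinase profiling panel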
[5] = target: Serine/threonine-protein kinase D2 (Homo sapiens, UniProt Q9BZL6);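 also: measured against PRKD2 as one member of a kinome-wide kinase profiling panel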
[6] = target: Tyrosine-protein kinase receptor TYRO3 (Homo sapiens, UniProt Q06418);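 also: TYRO3 value obtained as one member of a kinome-wide profiling panel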
[7] = target: Testis-specific serine/threonine-protein kinase 2 (Homo sapiens, UniProt Q96PF2);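 also: part of the Navigating the Kinome panel, target entry STK22B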
[8] = target: SRSF protein kinase 1 (Homo sapiens, UniProt Q96SB4);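 also: measured as one member of a kinome-wide kinase profiling panel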
[9] = target: Serine/threonine-protein kinase pim-1 (Homo sapiens, UniProt P11309)
[10] = target: MAP kinase-activated protein kinase 5 (Homo sapiens, UniProt Q8IW41);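 also: measured as one member of a kinome panel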
[11] = target: MAP kinase-activated protein kinase 2 (Homo sapiens, UniProt P49137);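 also: measured as one member of a kinome-wide kinase panel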
[12] = target: Mast/stem cell growth factor receptor Kit (Homo sapiens, UniProt P10721);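 also: KIT entry within a kinase panel assay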
[13] = target: Casein kinase II subunit alpha (Homo sapiens, UniProt P68400)
[14] = target: Serine/threonine-protein kinase PAK 4 (Homo sapiens, UniProt O96013);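 also: value obtained within a kinome profiling panel in which PAK4 was one of the panel members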
[15] = target: Calcium/calmodulin-dependent protein kinase type II subunit delta (Homo sapiens, UniProt Q13557)
[16] = target: Fibroblast growth factor receptor 1 (Homo sapiens, UniProt P11362)
[17] = target: Casein kinase I isoform alpha (Homo sapiens, UniProt P48729)
[18] = target: Casein kinase I isoform gamma-1 (Homo sapiens, UniProt Q9HCP0);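 also: measured as the CSNK1G1 member of a kinome profiling panel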
[19] = target: Tyrosine-protein kinase Lyn (Homo sapiens, UniProt P07948);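 also: lyn as one member of a kinase panel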
[20] = target: Mitogen-activated protein kinase 9 (Homo sapiens, UniProt P45984);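 also: value from a kinome panel profiling assay, MAPK9 panel entry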
[21] = target: Serine/threonine-protein kinase TAO1 (Homo sapiens, UniProt Q7L7X3)
[22] = target: Proto-oncogene tyrosine-protein kinase ROS (Homo sapiens, UniProt P08922);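 also: ROS1 tested as one member of a kinome-wide kinase panel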
[23] = target: Tyrosine-protein kinase Blk (Homo sapiens, UniProt P51451);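 also: obtained as one member of a kinome-wide kinase assay panel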
[24] = target: Homeodomain-interacting protein kinase 2 (Homo sapiens, UniProt Q9H2X6);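 also: measured within a kinome-wide kinase profiling panel, HIPK2 being one panel member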
[25] = target: Non-receptor tyrosine-protein kinase TYK2 (Homo sapiens, UniProt P29597)
[26] = target: Hepatocyte growth factor receptor (Homo sapiens, UniProt P08581);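 also: kinase panel profiling across the kinome, with MET as the panel member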
[27] = target: Serine/threonine-protein kinase Chk1 (Homo sapiens, UniProt O14757);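 also: measured as one member of a kinome-wide kinase profiling panel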
[28] = target: Vascular endothelial growth factor receptor 2 (Homo sapiens, UniProt P35968)
[29] = target: Ephrin type-A receptor 2 (Homo sapiens, UniProt P29317);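 also: EPHA2 tested as one member of a kinome-wide kinase panel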
[30] = target: Insulin-like growth factor 1 receptor (Homo sapiens, UniProt P08069); assay: Navigating the Kinome. Panel member name: IGF1R
[31] = target: Mitogen-activated protein kinase 1 (Homo sapiens, UniProt P28482)
[32] = target: Misshapen-like kinase 1 (Homo sapiens, UniProt Q8N4C8);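 also: kinome panel screen with MINK as the panel member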
[33] = target: Dual specificity tyrosine-phosphorylation-regulated kinase 4 (Homo sapiens, UniProt Q9NR20)
[34] = target: Protein kinase C iota type (Homo sapiens, UniProt P41743);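 also: measured within a kinome-wide kinase panel, PRKCI as panel member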
[35] = target: cAMP-dependent protein kinase catalytic subunit PRKX (Homo sapiens, UniProt P51817)
[36] = target: Interleukin-1 receptor-associated kinase 1 (Homo sapiens, UniProt P51617);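 also: IRAK1 tested as one member of a kinome panel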
[37] = target: Protein-tyrosine kinase 6 (Homo sapiens, UniProt Q13882)
[38] = target: Vascular endothelial growth factor receptor 3 (Homo sapiens, UniProt P35916);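 also: value from a kinome-wide profiling panel, with FLT4 as the panel member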
[39] = target: Calcium/calmodulin-dependent protein kinase type 1 (Homo sapiens, UniProt Q14012)
[40] = target: Homeodomain-interacting protein kinase 4 (Homo sapiens, UniProt Q8NE63)
[41] = target: Cyclin-dependent kinase 1 (Homo sapiens, UniProt P06493);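 also: Kinome-wide panel profiling, with the target listed as panel member CDC2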
[42] = target: STE20-like serine/threonine-protein kinase (Homo sapiens, UniProt Q9H2G2)
[43] = target: Glycogen synthase kinase-3 beta (Homo sapiens, UniProt P49841);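 also: value comes from a broad kinome profiling panel, with GSK3B as the panel member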
[44] = target: BDNF/NT-3 growth factors receptor (Homo sapiens, UniProt Q16620);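 also: NTRK2 measured as one member of a broad kinome-wide kinase profiling panel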
[45] = target: Dual specificity protein kinase CLK4 (Homo sapiens, UniProt Q9HAZ1)
[46] = target: Serine/threonine-protein kinase MRCK alpha (Homo sapiens, UniProt Q5VT25)
[47] = target: Serine/threonine-protein kinase BRSK1 (Homo sapiens, UniProt Q8TDC3);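 also: measured within a kinome-wide kinase panel, with the target listed as KIAA1811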

Chain of Serine/threonine-protein kinase Chk1 (O14757 whole entry): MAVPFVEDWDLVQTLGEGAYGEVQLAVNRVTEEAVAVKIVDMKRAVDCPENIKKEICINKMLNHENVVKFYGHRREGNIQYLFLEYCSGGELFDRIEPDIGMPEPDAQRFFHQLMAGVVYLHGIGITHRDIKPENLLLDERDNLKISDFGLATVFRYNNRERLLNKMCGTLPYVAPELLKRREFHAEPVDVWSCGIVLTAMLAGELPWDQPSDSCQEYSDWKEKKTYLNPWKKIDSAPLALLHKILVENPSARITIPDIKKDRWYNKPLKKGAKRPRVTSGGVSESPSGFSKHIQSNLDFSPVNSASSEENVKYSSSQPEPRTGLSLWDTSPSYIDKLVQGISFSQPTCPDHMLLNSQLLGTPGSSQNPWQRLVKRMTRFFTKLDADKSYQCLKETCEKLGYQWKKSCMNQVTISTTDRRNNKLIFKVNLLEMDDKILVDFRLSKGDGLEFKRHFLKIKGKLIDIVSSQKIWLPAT
Chain of Serine/threonine-protein kinase MRCK alpha (Q5VT25 whole entry): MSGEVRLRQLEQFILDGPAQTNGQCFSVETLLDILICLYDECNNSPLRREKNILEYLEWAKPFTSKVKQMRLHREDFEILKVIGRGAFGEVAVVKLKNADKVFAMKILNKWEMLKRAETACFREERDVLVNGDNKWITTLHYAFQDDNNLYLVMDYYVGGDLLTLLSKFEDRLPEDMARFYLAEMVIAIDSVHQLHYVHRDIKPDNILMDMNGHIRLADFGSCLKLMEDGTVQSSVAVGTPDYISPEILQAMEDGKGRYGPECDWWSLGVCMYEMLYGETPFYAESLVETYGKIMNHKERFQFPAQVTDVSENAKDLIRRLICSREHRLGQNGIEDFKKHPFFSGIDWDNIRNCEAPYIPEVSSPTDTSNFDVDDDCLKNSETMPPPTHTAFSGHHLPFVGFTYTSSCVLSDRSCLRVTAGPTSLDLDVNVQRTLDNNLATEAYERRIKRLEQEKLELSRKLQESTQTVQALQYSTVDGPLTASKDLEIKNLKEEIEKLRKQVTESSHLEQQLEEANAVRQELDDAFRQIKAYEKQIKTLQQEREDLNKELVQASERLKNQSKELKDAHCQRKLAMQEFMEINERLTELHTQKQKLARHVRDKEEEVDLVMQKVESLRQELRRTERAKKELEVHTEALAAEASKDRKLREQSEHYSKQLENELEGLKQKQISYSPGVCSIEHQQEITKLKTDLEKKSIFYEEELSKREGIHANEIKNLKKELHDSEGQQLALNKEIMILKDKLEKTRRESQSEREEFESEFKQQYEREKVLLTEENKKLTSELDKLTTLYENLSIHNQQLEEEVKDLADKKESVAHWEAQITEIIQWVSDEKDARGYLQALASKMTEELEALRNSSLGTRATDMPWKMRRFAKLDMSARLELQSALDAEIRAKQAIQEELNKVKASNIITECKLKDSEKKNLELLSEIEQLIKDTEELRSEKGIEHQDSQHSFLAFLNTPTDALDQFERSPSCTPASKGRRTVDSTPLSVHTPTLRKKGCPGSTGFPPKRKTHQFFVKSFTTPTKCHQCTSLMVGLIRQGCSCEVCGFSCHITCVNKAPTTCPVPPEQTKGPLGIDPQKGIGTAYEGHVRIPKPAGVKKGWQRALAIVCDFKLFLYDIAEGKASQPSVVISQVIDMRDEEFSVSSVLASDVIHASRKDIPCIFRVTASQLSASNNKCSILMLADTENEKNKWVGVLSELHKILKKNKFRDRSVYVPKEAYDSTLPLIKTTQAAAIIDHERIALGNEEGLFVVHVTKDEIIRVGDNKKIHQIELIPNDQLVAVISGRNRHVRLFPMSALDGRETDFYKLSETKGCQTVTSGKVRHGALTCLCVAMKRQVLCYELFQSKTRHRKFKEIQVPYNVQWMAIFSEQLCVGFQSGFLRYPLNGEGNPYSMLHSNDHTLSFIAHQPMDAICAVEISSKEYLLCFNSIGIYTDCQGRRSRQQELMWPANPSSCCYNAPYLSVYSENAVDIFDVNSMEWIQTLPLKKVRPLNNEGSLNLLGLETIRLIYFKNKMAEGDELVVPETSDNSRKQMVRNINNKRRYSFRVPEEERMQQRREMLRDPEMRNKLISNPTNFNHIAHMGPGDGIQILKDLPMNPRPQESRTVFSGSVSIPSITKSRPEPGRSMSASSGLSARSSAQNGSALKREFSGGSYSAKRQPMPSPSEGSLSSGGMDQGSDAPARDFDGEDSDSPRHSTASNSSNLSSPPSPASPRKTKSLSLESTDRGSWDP
Chain of Mast/stem cell growth factor receptor Kit (P10721 whole entry): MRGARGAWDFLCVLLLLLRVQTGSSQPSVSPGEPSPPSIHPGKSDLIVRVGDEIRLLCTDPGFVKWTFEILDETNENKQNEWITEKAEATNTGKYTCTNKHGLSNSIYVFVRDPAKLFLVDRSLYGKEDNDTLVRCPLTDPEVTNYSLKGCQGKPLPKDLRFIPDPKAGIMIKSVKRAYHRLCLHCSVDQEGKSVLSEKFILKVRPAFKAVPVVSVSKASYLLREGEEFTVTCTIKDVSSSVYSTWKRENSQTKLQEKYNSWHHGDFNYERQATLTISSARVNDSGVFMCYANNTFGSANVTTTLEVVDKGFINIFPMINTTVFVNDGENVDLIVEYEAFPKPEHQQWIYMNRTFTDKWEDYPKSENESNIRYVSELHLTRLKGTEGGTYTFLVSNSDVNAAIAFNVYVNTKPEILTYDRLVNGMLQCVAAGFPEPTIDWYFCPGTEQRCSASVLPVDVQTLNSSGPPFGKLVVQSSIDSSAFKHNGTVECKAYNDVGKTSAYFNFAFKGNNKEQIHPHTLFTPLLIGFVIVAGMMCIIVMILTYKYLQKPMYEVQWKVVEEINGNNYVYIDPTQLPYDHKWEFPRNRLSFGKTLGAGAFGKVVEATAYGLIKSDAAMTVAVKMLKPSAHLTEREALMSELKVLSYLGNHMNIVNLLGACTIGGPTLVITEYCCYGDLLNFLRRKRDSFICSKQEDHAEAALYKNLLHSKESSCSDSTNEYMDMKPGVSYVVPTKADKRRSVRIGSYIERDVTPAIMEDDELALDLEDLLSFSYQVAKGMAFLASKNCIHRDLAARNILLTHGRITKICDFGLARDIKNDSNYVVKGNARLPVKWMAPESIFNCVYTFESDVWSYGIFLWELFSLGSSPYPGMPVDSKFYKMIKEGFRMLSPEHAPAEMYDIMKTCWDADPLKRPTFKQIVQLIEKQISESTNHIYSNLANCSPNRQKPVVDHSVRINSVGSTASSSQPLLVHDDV
Chain of Tyrosine-protein kinase Lyn (P07948 whole entry): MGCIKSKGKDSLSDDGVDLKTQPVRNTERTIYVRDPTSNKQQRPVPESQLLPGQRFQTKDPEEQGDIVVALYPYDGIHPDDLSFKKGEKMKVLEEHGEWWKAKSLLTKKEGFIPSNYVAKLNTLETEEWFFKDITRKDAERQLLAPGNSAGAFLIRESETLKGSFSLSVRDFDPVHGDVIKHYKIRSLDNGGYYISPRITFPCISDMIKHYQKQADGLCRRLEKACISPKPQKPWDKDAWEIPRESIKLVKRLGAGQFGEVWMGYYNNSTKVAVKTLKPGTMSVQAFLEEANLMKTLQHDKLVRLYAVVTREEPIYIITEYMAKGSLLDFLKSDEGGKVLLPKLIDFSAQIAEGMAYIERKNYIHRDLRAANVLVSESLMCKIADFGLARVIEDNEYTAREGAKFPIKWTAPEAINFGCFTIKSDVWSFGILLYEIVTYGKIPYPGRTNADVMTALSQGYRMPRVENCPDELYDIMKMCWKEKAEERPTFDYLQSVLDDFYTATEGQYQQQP
Chain of Mitogen-activated protein kinase 9 (P45984 whole entry): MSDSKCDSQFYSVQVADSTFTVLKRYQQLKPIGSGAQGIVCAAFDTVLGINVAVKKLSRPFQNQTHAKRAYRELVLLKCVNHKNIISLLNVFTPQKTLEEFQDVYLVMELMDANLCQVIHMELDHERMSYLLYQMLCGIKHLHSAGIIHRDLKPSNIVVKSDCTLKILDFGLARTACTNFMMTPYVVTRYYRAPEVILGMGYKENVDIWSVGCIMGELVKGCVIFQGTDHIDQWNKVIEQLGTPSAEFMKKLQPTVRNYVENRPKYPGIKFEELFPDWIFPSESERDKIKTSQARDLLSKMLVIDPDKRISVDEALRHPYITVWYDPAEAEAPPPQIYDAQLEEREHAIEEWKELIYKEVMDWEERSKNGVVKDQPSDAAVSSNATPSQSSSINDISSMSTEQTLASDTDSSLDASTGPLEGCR
Chain of Megakaryocyte-associated tyrosine-protein kinase (P42679 whole entry): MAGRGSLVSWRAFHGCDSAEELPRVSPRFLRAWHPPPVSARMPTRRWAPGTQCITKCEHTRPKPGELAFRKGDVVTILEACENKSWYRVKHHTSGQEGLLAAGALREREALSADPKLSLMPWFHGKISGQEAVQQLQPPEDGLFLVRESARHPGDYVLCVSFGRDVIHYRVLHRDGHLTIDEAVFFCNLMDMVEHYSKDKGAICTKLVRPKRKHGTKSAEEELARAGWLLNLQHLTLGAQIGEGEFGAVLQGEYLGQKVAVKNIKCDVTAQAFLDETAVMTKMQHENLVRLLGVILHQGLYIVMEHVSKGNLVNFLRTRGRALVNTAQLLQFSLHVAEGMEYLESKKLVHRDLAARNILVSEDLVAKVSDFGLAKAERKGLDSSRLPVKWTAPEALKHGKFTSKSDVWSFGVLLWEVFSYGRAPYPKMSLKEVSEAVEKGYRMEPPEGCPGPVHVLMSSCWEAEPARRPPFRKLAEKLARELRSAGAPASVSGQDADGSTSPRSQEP
Chain of Casein kinase I isoform alpha (P48729 whole entry, canonical isoform): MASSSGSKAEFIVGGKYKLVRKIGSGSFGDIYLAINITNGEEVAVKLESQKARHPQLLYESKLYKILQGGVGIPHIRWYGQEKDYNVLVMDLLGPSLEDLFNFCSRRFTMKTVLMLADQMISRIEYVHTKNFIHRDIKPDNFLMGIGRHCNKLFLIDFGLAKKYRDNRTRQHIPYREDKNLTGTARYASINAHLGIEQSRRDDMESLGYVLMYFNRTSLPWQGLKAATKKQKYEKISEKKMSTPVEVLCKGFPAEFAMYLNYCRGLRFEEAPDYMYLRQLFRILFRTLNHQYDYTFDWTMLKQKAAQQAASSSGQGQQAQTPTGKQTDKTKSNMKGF

With `NC(=O)Cn1cc(-c2cc(-c3cc4ccccc4s3)c3[nH]ncc3c2)c2nc(N)ncc21` the Ki [1] was > 2 µM (inactive), the Ki [2] was 1 µM (active) and the Ki [3] was 631 nM (active). The Ki [4] was 200 nM (active), the Ki [5] was 794 nM (active) and the Ki [6] was > 2 µM (inactive). For the same compound, the Ki [7] was > 1.58 µM (inactive), the Ki [8] was 2 µM (active) and the Ki [9] was 3.16 µM (active). The Ki [10] was 631 nM (active), the Ki [11] was 25.1 nM (active) and the Ki [12] was > 1.26 µM (inactive). The Ki [13] was > 6.31 µM (inactive), the Ki [14] was > 5.01 µM (inactive) and the Ki [15] was 3.16 µM (active). The Ki [16] was > 5.01 µM (inactive), the Ki [17] was > 6.31 µM (inactive) and the Ki [18] was > 6.31 µM (inactive). The Ki [19] was > 1.58 µM (inactive), the Ki [20] was 1.26 µM (active) and the Ki [21] was 2.51 µM (active). For the same compound, the Ki [22] was > 2 µM (inactive), the Ki [23] was > 1.58 µM (inactive) and the Ki [24] was > 3.16 µM (inactive). The Ki [25] was > 2 µM (inactive), the Ki [26] was 2.51 µM (active) and the Ki [27] was > 7.94 µM (inactive). The Ki [28] was 1.26 µM (active), the Ki [29] was > 3.16 µM (inactive) and the Ki [30] was > 2 µM (inactive). The Ki [31] was > 7.94 µM (inactive), the Ki [32] was 501 nM (active) and the Ki [33] was 2 µM (active). For the same compound, the Ki [34] was 63.1 nM (active), the Ki [35] was 39.8 nM (active) and the Ki [36] was 7.94 µM (active). The Ki [37] was > 2.51 µM (inactive), the Ki [38] was 2.51 µM (active) and the Ki [39] was > 5.01 µM (inactive). The Ki [40] was > 7.94 µM (inactive), the Ki [41] was 1.58 µM (active) and the Ki [42] was 1.58 µM (active). The Ki [43] was 100 nM (active), the Ki [44] was > 5.01 µM (inactive) and the Ki [45] was 25.1 nM (active). The Ki [46] was 3.98 µM (active) and the Ki [47] was 2 µM (active).
